Here are results for one compound from EP0369744B1, “Xanthine derivatives, process for their preparation and pharmaceutical compositions” (SMITHKLINE BEECHAM PHARMA GmbH, priority 1988, dated 1990).

The assay has as its system gerbils. In words: Delayed neuronal death in gerbils after transient forebrain ischaemia. The class given is in vivo. On the procedure: Ischaemia was produced in adult male gerbils by occlusion of both common carotid arteries for 3 minutes under halothane/nitrous oxide anaesthesia. During surgery the animals were placed upon a warming blanket. The ischaemia led to neuronal degeneration and to disturbed brain function.
Brains were removed 2 weeks later and 12 µm thick coronal slices were examined light microscopically for neuronal degeneration.
Three groups of animals were used: • 1. sham ligated controls • 2. solvent-treated ligated controls • 3. compound-treated ligated animals The compound was administered 1 hour before the ligation period.
Means ± SEM (n) of histopathological score [HPS] which reflects the degree of neuronal damage in the hippocampal CA1 field: 0 = no damaged neurons 1 = mild necrosis 2 = moderate necrosis 3 = severe necrosis 4 = complete necrosis

For `O=c1c2[nH]cnc2n(CC2CC2)c(=O)n1CC1CC1` [Example 1, 1,3-Di-cyclopropylmethyl xanthine], the “ischaemia induced neuronal degeneration (conclusion)” value is on record as “significantly prevented ischaemia induced neuronal degeneration”.
